Results taken from patent US20240197596A1, “COMPOUNDS USEFUL AS HAIR DYES” (National University of Singapore, priority 2021, published 2024).
Values after ≈ are worked out from the molar mass of the structure shown.

How the values were obtained:
[1] = Thermodynamic solubility assay (modified shake flask, LC-MS/MS); details: Milli-Q water, pH=7, 25° C., 24 h, 3 separate determinations; for solubility at 24 h: 25 °C, pH 7, water, thermodynamic from solid
Description: The aqueous solubilities (pH=7) of these compounds were measured using the modified shake flask method and LC-MS/MS. Each hair dye was added into a 2 mL glass vial containing Milli-Q water (1 mL) to form the precipitates at 25° C. Then the mixture was subjected to a solubility-equilibrium stage. The vials were shaken at 300 rpm at 25° C. for 24 h. The precipitate was separated by centrifugation at 23,000 g for 20 min. Subsequently, 0.5 mL of supernatant was transferred into a 1 mL Eppendorf tube, and it was centrifuged again as mentioned above. The supernatant was then used for LC-MS/MS analysis.
The mass spectrometric analysis was performed by use of a AB SCIEX QTRAP 5500 tandem mass spectrometry (MS/MS) system (AB SCIEX, Framingham, MA, USA) operating in triple quadrupole positive mode (ESI+) equipped with an AB Sciex Turbo Ion Spray interface. Acquisition and analysis of data were performed with Analyst software ver. 1.4.2 (Applied Biosystems) which performed all chromatographic peak integration. For each hair dye, a standard curve consisting of four concentrations was established.
Solvent A was composed of 0.1% [v/v] formic acid in Milli-Q water while solvent B was composed of 0.1% [v/v] formic acid in acetonitrile. A mobile phase gradient pumped at 0.6 mL/min was used to elute the hair dyes from the column. The column was equilibrated for 1 min resulting in a total run time of 5 min. The injection volume was 5.0 μL for all derivatives. To prevent compound accumulation on the needle, 50% methanol in ACN was used as needle wash for 30 s per sample.

[2] = test system: HaCaT cells; assay: MTT assay on HaCaT cells; assay type: cell-based; details: Homo sapiens; HaCaT cells, 72 h, MTT; read-out: IC50
Description: HaCaT (human, adult, low calcium, high temperature, skin keratinocyte) cell suspension was adjusted to 5×10^3 cells per well and seeded in 96-well plates, then incubated at 37° C. with 5% CO2. After 24 h, 10 mM stock solutions of N1-N13 in autoclaved milli-Q water were prepared and serially diluted concentrations were added to the wells. Each concentration was performed in 6-replicates, and seeded wells with only media and no compound were used as controls while wells with only media were used as blanks. The plate was incubated for 72 h, after which 100 μL of MTT reagent was added and the plate was further incubated for 3 h before adding 100 μL of DMSO. Subsequently, the plate was shaken for 20 min, and then absorbance at 570 nm was determined using a Bio-Tek plate reader.

[3] = test system: THP-1 cells; assay: MTT assay on THP-1 cells (CV75); assay type: cell-based, human; details: THP-1 cells, 24 h
Description: THP-1 (human acute monocytic leukaemia cell line) cell suspension was adjusted to 1×10^5 cells per well and seeded in 96-well plates. The plate was incubated at 37° C. with 5% CO2. After 24 h, 10 mM stock solutions of N1-N13 were prepared in autoclaved milli-Q water. A series of concentrations diluted in media was prepared and added to the wells. Each concentration was performed in 6-replicates, and seeded wells with only media and no compound were used as controls while wells with only media were used as blanks. The plate was incubated for 24 h, after which 100 μL of MTT reagent was added and the plate was further incubated for 3 h before adding 100 μL of DMSO. Subsequently, the plate was shaken for 20 min, and then absorbance at 570 nm was determined using a Bio-Tek plate reader. Percentage cell viability was calculated and CV75 values were determined.

[4] = Hair nuance test; design: key to L* / a* / b*: CIELAB L*, a*, b* coordinates; key to ΔE (total colour difference to natural hair): ΔE = √((L*−L0)²+(a*−a0)²+(b*−b0)²) vs untreated hair; details: for eventual colour of bleached hair, Type A: Type A (Non-oxidative) formulation; for eventual colour of bleached hair, Type B: Type B (Oxidative, H2O2) formulation; for eventual colour of bleached hair, Type C: Type C (Oxidative with coupler resorcinol) formulation
Description: 35 g of bleaching powder was mixed with 50 mL of developer then applied onto undyed black hair (wrapped in aluminium foil to enhance the bleaching process) and left on for 45 min. The hair was then rinsed with deionized water and shampoo and left to dry. This process was repeated twice.
Hair dye formulations were prepared from N1-N13 according to methods reported (New Journal of Chemistry. 2019; 43(41):16188-99), and with the compositions stated in Table 11 Bleached hair samples were immersed into the respective formulations for 20 min, then air dried for 20 min. Then they were shampooed twice and treated with conditioner for 5 min.
SkinColorCatch (Delfin Technologies Ltd, Kuopio, Finland) was used to measure CIELAB tristimulus L*, a* and b* values of the dyed hair samples and baseline L0, a0, b0 values from untreated hair. The difference in colour tone (ΔH) and the total colour difference (ΔE) were then derived from the values obtained with the equations below:
ΔH=√{square root over ((a*−a0)^2+(b*−b0)^2)}
ΔE=√{square root over ((L*−L0)^2+(a*−a0)^2+(b*−b0)^2)}

[5] = Type C (Oxidative with coupler resorcinol)

Compound: Nc1ccc(N)c(OCOCO)c1 [Compound N8, ((2,5-diaminophenoxy)methoxy)methanol]
- solubility at 24 h [1]: 78 to 100 mg/mL (≈ 423 to 543 mM)
- Solubility [1]: 92 + 3.0 mg/ml
- IC50 [2]: 219 µM
- CV75 (concentration affording 75% cell viability), 1 × CV75 [3]: 141 µg/mL
- L* ([4]; Type A (Non-oxidative)): 12
- a* ([4]; Type A (Non-oxidative)): −1
- b* ([4]; Type A (Non-oxidative)): 6
- ΔE (total colour difference to natural hair) ([4]; Type A (Non-oxidative)): 5.91
- ΔH (difference in colour tone) ([4]; Type A (Non-oxidative)): 2.43
- eventual colour of bleached hair, Type A [4]: Black
- L* ([4]; Type B (Oxidative)): 9
- a* ([4]; Type B (Oxidative)): 0
- b* ([4]; Type B (Oxidative)): −1
- ΔE (total colour difference to natural hair) ([4]; Type B (Oxidative)): 2
- ΔH (difference in colour tone) ([4]; Type B (Oxidative)): 1.41
- eventual colour of bleached hair, Type B [4]: black colour
- L* [4, 5]: 10
- a* [4, 5]: 0
- b* [4, 5]: 3
- ΔE (total colour difference to natural hair) [4, 5]: 2.23
- ΔH (difference in colour tone) [4, 5]: 1.49
- eventual colour of bleached hair, Type C [4]: Brown

Compound: Nc1ccc(N)c(OCCO)c1 [Compound N9, 2-(2,5-diaminophenoxy)ethan-1-ol]
- solubility at 24 h [1]: 65 to 72 mg/mL (≈ 386 to 428 mM)
- Solubility [1]: 72 + 3.4 mg/ml
- IC50 [2]: 272 µM
- CV75 (concentration affording 75% cell viability), 1 × CV75 [3]: 126 µg/mL
- L* ([4]; Type A (Non-oxidative)): 23
- a* ([4]; Type A (Non-oxidative)): 8
- b* ([4]; Type A (Non-oxidative)): 10
- ΔE (total colour difference to natural hair) ([4]; Type A (Non-oxidative)): 18.46
- ΔH (difference in colour tone) ([4]; Type A (Non-oxidative)): 4.29
- eventual colour of bleached hair, Type A [4]: brown colour
- L* ([4]; Type B (Oxidative)): 32
- a* ([4]; Type B (Oxidative)): 0
- b* ([4]; Type B (Oxidative)): 4
- ΔE (total colour difference to natural hair) ([4]; Type B (Oxidative)): 23.19
- ΔH (difference in colour tone) ([4]; Type B (Oxidative)): 4.81
- eventual colour of bleached hair, Type B [4]: brown colour
- L* [4, 5]: 29
- a* [4, 5]: 19
- b* [4, 5]: 19
- ΔE (total colour difference to natural hair) [4, 5]: 32.93
- ΔH (difference in colour tone) [4, 5]: 5.73
- eventual colour of bleached hair, Type C [4]: vibrant blue colours and Blue

Compound: CC(O)COc1cc(N)ccc1N (stereo not shown) [Compound N10, 1-(2,5-diaminophenoxy)propan-2-ol]
- solubility at 24 h [1]: 78 to 100 mg/mL (≈ 428 to 549 mM)
- Solubility [1]: 78 + 2.5 mg/ml
- IC50 [2]: 283 µM
- CV75 (concentration affording 75% cell viability), 1 × CV75 [3]: 117 µg/mL
- L* ([4]; Type A (Non-oxidative)): 25
- a* ([4]; Type A (Non-oxidative)): 12
- b* ([4]; Type A (Non-oxidative)): 6
- ΔE (total colour difference to natural hair) ([4]; Type A (Non-oxidative)): 20.61
- ΔH (difference in colour tone) ([4]; Type A (Non-oxidative)): 4.53
- eventual colour of bleached hair, Type A [4]: Brownish Purple
- L* ([4]; Type B (Oxidative)): 11
- a* ([4]; Type B (Oxidative)): 1
- b* ([4]; Type B (Oxidative)): −2
- ΔE (total colour difference to natural hair) ([4]; Type B (Oxidative)): 3.74
- ΔH (difference in colour tone) ([4]; Type B (Oxidative)): 1.93
- eventual colour of bleached hair, Type B [4]: black colour
- L* [4, 5]: 30
- a* [4, 5]: 18
- b* [4, 5]: 18
- ΔE (total colour difference to natural hair) [4, 5]: 32.46
- ΔH (difference in colour tone) [4, 5]: 5.69
- eventual colour of bleached hair, Type C [4]: Brown

Compound: CCC(=O)COc1cc(N)ccc1N [Compound N11, 1-(2,5-diaminophenoxy)butan-2-one]
- solubility at 24 h [1]: 45 mg/mL (≈ 232 mM)
- IC50 [2]: 196 µM
- CV75 (concentration affording 75% cell viability), 1 × CV75 [3]: 65.4 µg/mL
- L* ([4]; Type A (Non-oxidative)): 36
- a* ([4]; Type A (Non-oxidative)): 5
- b* ([4]; Type A (Non-oxidative)): 8
- ΔE (total colour difference to natural hair) ([4]; Type A (Non-oxidative)): 28.33
- ΔH (difference in colour tone) ([4]; Type A (Non-oxidative)): 5.32
- eventual colour of bleached hair, Type A [4]: Greyish brown
- L* ([4]; Type B (Oxidative)): 9
- a* ([4]; Type B (Oxidative)): 0
- b* ([4]; Type B (Oxidative)): −1
- ΔE (total colour difference to natural hair) ([4]; Type B (Oxidative)): 2
- ΔH (difference in colour tone) ([4]; Type B (Oxidative)): 1.41
- eventual colour of bleached hair, Type B [4]: black colour
- L* [4, 5]: 32
- a* [4, 5]: 18
- b* [4, 5]: 25
- ΔE (total colour difference to natural hair) [4, 5]: 37.8
- ΔH (difference in colour tone) [4, 5]: 6.14
- eventual colour of bleached hair, Type C [4]: Pale Brown

Compound: C=C(C)Oc1cc(N)ccc1N [Compound N12, 2-(prop-1-en-2-yloxy)benzene-1,4-diamine]
- solubility at 24 h [1]: 32 mg/mL (≈ 195 mM)
- IC50 [2]: 127 µM
- CV75 (concentration affording 75% cell viability), 1 × CV75 [3]: 44.7 µg/mL
- L* ([4]; Type A (Non-oxidative)): 17
- a* ([4]; Type A (Non-oxidative)): 9
- b* ([4]; Type A (Non-oxidative)): 4
- ΔE (total colour difference to natural hair) ([4]; Type A (Non-oxidative)): 12.4
- ΔH (difference in colour tone) ([4]; Type A (Non-oxidative)): 3.52
- L* ([4]; Type B (Oxidative)): 28
- a* ([4]; Type B (Oxidative)): 18
- b* ([4]; Type B (Oxidative)): 12
- ΔE (total colour difference to natural hair) ([4]; Type B (Oxidative)): 28.39
- ΔH (difference in colour tone) ([4]; Type B (Oxidative)): 5.32
- eventual colour of bleached hair, Type B [4]: brown colour
- L* [4, 5]: 11
- a* [4, 5]: 0
- b* [4, 5]: −3
- ΔE (total colour difference to natural hair) [4, 5]: 4.47
- ΔH (difference in colour tone) [4, 5]: 2.11
- eventual colour of bleached hair, Type C [4]: distinct purple colour

Compound: CNCCOc1cc(N)ccc1N [Compound N13, 2-(2-(methylamino)ethoxy)benzene-1,4-diamine]
- solubility at 24 h [1]: 38 mg/mL (≈ 210 mM)
- IC50 [2]: 120 µM
- CV75 (concentration affording 75% cell viability), 1 × CV75 [3]: 54.3 µg/mL
- L* ([4]; Type A (Non-oxidative)): 24
- a* ([4]; Type A (Non-oxidative)): 8
- b* ([4]; Type A (Non-oxidative)): 8
- ΔE (total colour difference to natural hair) ([4]; Type A (Non-oxidative)): 18.38
- ΔH (difference in colour tone) ([4]; Type A (Non-oxidative)): 4.28
- L* ([4]; Type B (Oxidative)): 36
- a* ([4]; Type B (Oxidative)): 11
- b* ([4]; Type B (Oxidative)): 18
- ΔE (total colour difference to natural hair) ([4]; Type B (Oxidative)): 33.74
- ΔH (difference in colour tone) ([4]; Type B (Oxidative)): 5.8
- eventual colour of bleached hair, Type B [4]: Grey
- L* [4, 5]: 25
- a* [4, 5]: 14
- b* [4, 5]: 11
- ΔE (total colour difference to natural hair) [4, 5]: 23.49
- ΔH (difference in colour tone) [4, 5]: 4.84
- eventual colour of bleached hair, Type C [4]: Brown
